Each structure is given as a SMILES string.

Data set [1] relates to B16 mouse melanoma 4A5 cells. Kind of data set: Viable cell count (protein amount, DC Protein Assay) in B16 mouse melanoma 4A5 cells. As to the method: (§1) B16 mouse melanoma 4A5 cells (RIKEN) were seeded at 5.0 x 10^4 cells/well on a 6-well plate and cultured in Dulbecco's modified Eagle's medium (DMEM) supplemented with 10% FBS at 37° C. in the presence of 5% CO2. The medium was exchanged with fresh medium supplemented with the sample on the following day, and culture was conducted in the medium supplemented with the sample for an additional 5 days. The medium was removed 6 days after the initiation of culture, and the cells were collected by using trypsin. The collected cells were suspended in 1N sodium hydroxide, and melanin was extracted via heating. The absorbance of the melanin extract was measured at 405 nm, and the melanin level was quantified with the calibration curve of the melanin reagent (Sigma). In addition, the amount of proteins in the collected cells was determined using the DC Protein Assay KIT (BIO-RAD) and used as the indicator for the viable cell count.
as §1, with “5.0×10^4” for “5.0 x 10^4”

For a further data set, the system named is tyrosinase. Nature of the data set: Inhibitory effects on tyrosinase activity (L-tyrosine substrate, time course of absorbance at 475 nm, method of Patent Document 1). The format is biochemical. To be noted: Experiment 4, FIG. 3, aqueous solution of 1% sample, 0-15 min. As to the method: The experiment was carried out in the same manner as that described in Patent Document 1. An aqueous solution of 1% 3H2P, an aqueous solution of 1% coumalin (Tokyo Chemical Industry Co., Ltd.), an aqueous solution of 1% coumalic acid (Tokyo Chemical Industry Co., Ltd.), and an aqueous solution of 0.01% kojic acid were prepared. Subsequently, 1.45 ml of a substrate-sample mixture comprising an aqueous solution of L-tyrosine (0.3 mg/ml), a sample solution of 3H2P, etc., and McIlvaine buffer (pH 6.8) was introduced into a test tube, 0.05 ml of a tyrosinase solution (1 mg/ml) was added thereto, the resultant was mounted on a spectrophotometer capable of maintaining a constant temperature of 37° C., and the absorbance was measured at 475 nm with the elapse of time (once every minute between 0 min and 15 min).

Data set [2] deals with B16 mouse melanoma 4A5 cells. Kind of data set: Inhibition of melanin production in B16 mouse melanoma 4A5 cells. The format is cell-based. The note with it: for Melanin level: 5 days culture with sample, relative to control designated as 100. As for the experimental part:
as §1
as §1, with “5.0×10^4” for “5.0 x 10^4”

The subject of the next data set is tyrosinase (Sigma). Nature of the data set: Inhibition rate of tyrosinase activity (L-DOPA substrate, absorbance 475 nm). The format is biochemical. As to the method: In the experiment, 0.2 ml of an enzyme solution containing 72 units/ml tyrosinase (Sigma) was mixed with 1.0 ml of a substrate mixture (i.e., a 2:2:1 mixture of a 6 mM L-DOPA solution, the test composition with the adjusted concentration (hereafter referred to as the “sample”), and phosphate buffer), the absorbance was measured at 475 nm at 37° C. at 0 min and […], and the inhibition rate of tyrosinase activity was determined using the equation shown below.
Inhibition rate of tyrosinase activity (%)=(1−(the difference in the absorbance of the sample between […] and 3 min)/(the difference in the absorbance of the blank between 0 min and 3 min)×100
In the experiment, 0.2 ml of an enzyme solution containing 72 units/ml tyrosinase (Sigma) was mixed with 1.0 ml of a substrate mixture (i.e., a 2:2:1 mixture of a 6 mM L-DOPA solution, the sample with the adjusted concentration, and phosphate buffer (pH 6.8)), the absorbance was measured at 475 nm at 37° C. at 0 min and 3 min, and the inhibition rate of tyrosinase activity was determined using the equation shown below.
Inhibition rate of tyrosinase activity (%)=(1−(the difference in the absorbance of the sample between 0 min and 3 min)/(the difference in the absorbance of the blank between 0 min and 3 min)×100
In the experiment, 0.2 ml of an enzyme solution containing 72 units/ml tyrosinase (Sigma) was mixed with 1.0 ml of a substrate mixture (i.e., a 2:2:1 mixture of a 6 mM L-DOPA solution, the sample with the adjusted concentration, and phosphate buffer), the absorbance was measured at 475 nm at 37° C. at 0 min and 3 min, and the inhibition rate of tyrosinase activity was determined using the equation shown below.

Where [3] appears, read: Experiment 3, 1 μg/ml, relative to control designated as 100.
The mark [4] stands for this setting: Experiment 3, 5 μg/ml, relative to control designated as 100.
Where [5] appears, read: Experiment 3, 10 μg/ml, relative to control designated as 100.
The mark [6] stands for this setting: Experiment 7, FIG. 6, 3H4P, 3H2P and kojic acid compared.
Where [7] appears, read: Experiment 6, FIG. 5, kojic acid, 3H2P and 3H4P compared.

`O=c1occcc1O` [3H2P, 3-hydroxy-2-pyrone]: the Cell count in data set [1] (setting [3]) is recorded as 92.2; in data set [1] (setting [4]), 81.9; in data set [1] (setting [5]) it was 72.4; in data set [1] (Experiment 7, 1 μg/ml, relative to control designated as 100), 102.0; in data set [1] (Experiment 7, 5 μg/ml, relative to control designated as 100), 98.7; in data set [1] (Experiment 7, 10 μg/ml, relative to control designated as 100) it was 93.8. Moreover, the “inhibitory effects on tyrosinase activity” value with tyrosinase was “significantly stronger than those of coumalin and coumalic acid”; in the data set on tyrosinase (Sigma) (Experiment 2, FIG. 1, compared with kojic acid and ascorbic acid), “equivalent to those of ascorbic acid, although such effects are somewhat weaker than those of kojic acid”; with tyrosinase (Sigma) (Experiment 5, FIG. 4, final concentrations 0.3%, 0.1% and 0.033%), “apparently stronger than those of coumalin and coumalic acid”; with tyrosinase (Sigma) (setting [7]), “equivalent to those of 3H4P”. For the same compound, the “inhibitory effects on melanin production” value in data set [2] (Experiment 3, FIG. 2, compared with arbutin and kojic acid) was “stronger than those of kojic acid and equivalent to those of arbutin”; in data set [2] (setting [6]), “stronger inhibitory effects on melanin production than such γ-pyrone compounds”. For the same compound, the Melanin level came out at 71.7 in data set [2] (Experiment 3, 1 μg/ml); 34.3 in data set [2] (Experiment 3, 5 μg/ml); 20.7 in data set [2] (Experiment 3, 10 μg/ml); 77.2 in data set [2] (Experiment 7, 1 μg/ml); 42.7 in data set [2] (Experiment 7, 5 μg/ml); 29.6 in data set [2] (Experiment 7, 10 μg/ml). Also, in data set [2] (Experiment 3, 1 ppm = 1 μg/ml, 0.0001%), the “concentration at which inhibitory effects on melanin production are exerted” value is listed as not above 1 ppm.

As for `O=c1ccocc1O` [3H4P, 3-Hydroxy-4-pyrone], the Cell count in data set [1] (mouse, 5 days, 50 μg/ml) was 89.7; in data set [1] (mouse, 5 days, 100 μg/ml), 84.4. Also, the “inhibitory effects on melanin production” value in data set [2] (setting [6]) was “equivalent to those of kojic acid”. The Melanin level in data set [2] (Experiment 7, 50 μg/ml) was found to be 88.8; in data set [2] (Experiment 7, 100 μg/ml), 50.9.

On to `OC[C@H]1O[C@@H](Oc2ccc(O)cc2)[C@H](O)[C@@H](O)[C@@H]1O` [Arbutin, arbutin], for which the Cell count in data set [1] (setting [3]) came to 96.2; in data set [1] (setting [4]) it was 91.7; in data set [1] (setting [5]), 86.0. The Melanin level in data set [2] (Experiment 3, 1 μg/ml) came to 82.4; in data set [2] (Experiment 3, 5 μg/ml) it was 43.0; in data set [2] (Experiment 3, 10 μg/ml) it was 23.9.

With `O=c1cc(CO)occ1O` [Kojic acid, kojic acid], the Cell count in data set [1] (Experiment 3, 50 μg/ml, relative to control designated as 100) is 80.2; in data set [1] (Experiment 3, 100 μg/ml, relative to control designated as 100), 74.1; in data set [1] (Experiment 7, 50 μg/ml, relative to control designated as 100), 80.2; in data set [1] (Experiment 7, 100 μg/ml, relative to control designated as 100), 74.1. Also, the Melanin level is recorded as 76.5 in data set [2] (Experiment 3, 50 μg/ml); 65.7 in data set [2] (Experiment 3, 100 μg/ml); 85.6 in data set [2] (Experiment 7, 50 μg/ml); 65.3 in data set [2] (Experiment 7, 100 μg/ml). The “inhibitory effects on tyrosinase activity” value with tyrosinase (Sigma) (setting [7]) is “strongest inhibitory effects on tyrosinase activity”.

`O=C(O)c1ccc(=O)oc1` [coumalic acid]: the “inhibitory effects on tyrosinase activity” value in the data set with tyrosinase is recorded as “strong inhibitory effects”.

For `O=c1cccco1` [coumalin], the “inhibitory effects on tyrosinase activity” value in the data set with tyrosinase is “insignificant levels of inhibitory effects”.

The values are drawn from US20130309187A1, “SKIN-WHITENING AGENT CONTAINING 3-HYDROXY-2-PYRONE” (NICHIREI BIOSCIENCES INC., priority 2011, published 2013).
